Measured values from paper PMC7531004, “Discovery of gramicidin A analogues with altered activities by multidimensional screening of a one-bead-one-compound library” (Nature Communications, 2020).
Several values for one entry are separate records, joined by “and”; a condition that tells them apart may be missing. Equal values may be shown once. Read-outs that look alike come from different tables or passages of the source. Where a SMILES comes first, the peptide text is derived from it. [ ]: non-standard residue; d: D form. The star is where a group is joined. NHCH2CH2OH = OCCN*; For = O=C*

Key:
[1] = Membrane disruption assay of purified peptides (carboxyfluorescein leakage); type: biochemical; parameters: key: % lysis; Triton X-100 = 100%, DMSO = 0%; settings: three replicate lines
Experimental: Membrane disruption assay of purified peptides. 5(6)-Carboxyfluorescein (CF)-encapsulated large […]
through Nuclepore polycarbonate filters mounted in the mini-extruder apparatus. A solution of egg yolk phosphatidylcholine (EYPC, 22.0 mg, 28.9 µmol) in CHCl3 (225 µL) and egg yolk phosphatidylglycerol (1.2 0 […]
mM HEPES, 100 mM NaCl, 20 mM CF) by sonication. After five -times freeze-thaw cycles, the lipid […]
concentration of the resultant CF -encapsulated LUV suspension was deduced from the phosphatidylcholine concentration determined by using Phospholipid C -Test Wako. The lipid concentration of the LUV […]
as 5-fold serial dilution. The solution of peptide (2.0 µL) and the CF-encapsulated LUV suspension (200 […]
The resultant suspension was incubated at room temperature for 30 min. The fluorescence (Ex. 490 nm/Em. 517 nm) of each well was measured on Gemini EM microplate reader. Triton X-100/H2O (5/95, 3.0 µL), DMSO (2.0 µL), and the LUV suspension were mixed in each plate to determine 100% lysis. […]
was used to determine 0% lysis. The membrane disruption activities of tested peptides ( I) were normalized against 100% lysis by Triton X-100 (Imax) and 0% lysis by DMSO ( I0) according to Supplementary Equation 2 , where Ix is the fluorescence intensity.
The membrane disruption activities of the purified peptides were plotted as means of three replicates (Supplementary Figure 1).

[2] = tested on: Listeria monocytogenes 10403S; settings: for Antibacterial activity MIC: 10403S; for antibacterial activity/MIC: L. monocytogenes
Experimental: (§1) Third, 1 was subjected to five pathogenic Gram-positive bacteria.
(§2) Evaluation of antibacterial spectra of purified peptides. The MIC assay was performed according to the Clinical and Laboratory Standards Institute protocols. The antibacterial activities of the purified peptides A1, B01–B04, B11–B13, B21, and B22 were measured using the broth microdilution method. 6 Serial dilutions of the peptides were prepared in cation adjusted Mueller Hinton Broth. Each dilution (100 µL) was dispensed to each well of the round-bottom plate to obtain final concentrations ranging from 64 µg/mL to 0.00024 µg/mL. Bacteria were grown at 37 °C overnight on Tryptic Soy Broth or Mueller Hinton Broth agar plates.
(§3) The bacterial colonies were suspended in 0.9% saline to obtain OD 625 of 0.08–0.13 using a spectrophotometer UV-1280 (Shimadzu). The resultant suspension was diluted with cation adjusted Mueller Hinton Broth (1/20). The resultant mixture (10 .0 µL) was inoculated to each well of the plates (approximately 5 × 10^4 CFU/well), mixed, and incubated at 37 °C for 18–24 h. The MIC value was determined as the minimum concentration that inhibited growth of bacteria. For Streptococcus species, cation adjusted Mueller Hinton Broth supplemented with 5% laked horse blood was used. […]

[3] = tested on: Streptococcus pyogenes SSI-9; settings: for antibacterial activity/MIC: S. pyogenes; for Antibacterial activity MIC: SSI-9
Experimental: as §1, §2, §3

[4] = tested on: Streptococcus agalactiae JCM5671; settings: for Antibacterial activity MIC: JCM5671; for antibacterial activity/MIC: S. agalactiae
Experimental: as §1, §2, §3

[5] = tested on: Enterococcus faecalis JCM5803; settings: for antibacterial activity/MIC: E. faecalis; for Antibacterial activity MIC: JCM5803
Experimental: as §1, §2, §3

[6] = tested on: Streptococcus pneumoniae NBRC 102642; settings: for Antibacterial activity MIC: NBRC 102642; for antibacterial activity/MIC: S. pneumoniae
Experimental: as §1, §2, §3

[7] = Experimental: Second, we examined the cytotoxicity toward mammalian cancer cells and hemolytic activity of 1. […] Hemolytic activity was evaluated by monitoring hemoglobin leakage from rabbit red blood cells as a consequence of membrane damage. The concentration of 1 required to cause 10% hemoglobin leakage (HC10) was 160 nM. Thus, the P388 cytotoxicity of 1 was 28-fold more sensitive than its hemolytic activity.
Mammalian cytotoxicity assay of purified peptides.
B22 was diluted with the growth medium with 2% DMSO to various concentrations as 5-fold serial dilution.
The collected cells were resuspended into
the growth medium at 2 × 10^4 cells/mL. Aliquots of the former medium (2% DMSO, 100 µL) containing
peptides and the latter medium containing P388 cells (100 µL) were mixed in a 96-well cell culture plate
(TR5003, TrueLine). The final concentration of P388 cells and DMSO were 1 × 10^4 cells/mL and 1%,
respectively. […]
were determined by WST -1 assay. A solution of 1-methoxy PMS and WST-1 in the growth medium
(1-methoxy PMS 0.70 mg/mL in Milli-Q/WST-1 3.6 mg/mL in pH 7.4 HEPES buffer = 1/9) was added to
each well of the plate (20.0 µL/well). The cells were incubated for 4 h under atmosphere of 5% CO 2 at
37 °C. The absorbance of each well at 415 nm was measured using a Benchmark microplate reader
(Bio-Rad) or Thermo Scientifi c Multiskan GO (Thermo Fisher Scientific). The cytotoxicities of the purified
peptides were evaluated as IC 50 (nM) by means of three replicates. Sigmoidal curve fittings were performed

[8] = IC50, mammalian cytotoxicity assay
[9] = cytotoxicity against P388 cells/IC50

Structure (SMILES) | Supplementary Figure 1 dose-response value ([1]; concentration 0.000512 nM) | Supplementary Figure 1 dose-response value ([1]; concentration 0.00256 nM) | Supplementary Figure 1 dose-response value ([1]; concentration 0.0128 nM) | Supplementary Figure 1 dose-response value ([1]; concentration 0.064 nM) | Supplementary Figure 1 dose-response value ([1]; concentration 0.32 nM) | Supplementary Figure 1 dose-response value ([1]; concentration 1.6 nM) | Supplementary Figure 1 dose-response value ([1]; concentration 8 nM) | Supplementary Figure 1 dose-response value ([1]; concentration 40 nM) | Supplementary Figure 1 dose-response value ([1]; concentration 200 nM) | Supplementary Figure 1 dose-response value ([1]; concentration 1000 nM) | Supplementary Figure 1 dose-response value ([1]; concentration 5000 nM) | antibacterial activity/MIC [2] [µg/mL] | antibacterial activity/MIC [3] [µg/mL] | Antibacterial activity MIC [3] [µM] | Antibacterial activity MIC [4] [µM] | antibacterial activity/MIC [4] [µg/mL] | antibacterial activity/MIC [5] [µg/mL] | Antibacterial activity MIC [5] [µM] | Antibacterial activity MIC [6] [µM] | antibacterial activity/MIC [6] [µg/mL] | further results
CNC(=O)C[C@@H](NC(=O)[C@@H](NC(=O)[C@@H](CC(C)C)NC(=O)[C@H](C)NC(=O)[C@@H](CC(C)C)NC(=O)[C@H](C)NC(=O)CNC(=O)[C@@H](NC=O)C(C)C)C(C)C)C(=O)N[C@@H](Cc1c[nH]c2ccccc12)C(=O)N[C@H](CC(C)C)C(=O)N[C@@H](Cc1c[nH]c2ccccc12)C(=O)N[C@H](CC(C)C)C(=O)N[C@@H](Cc1c[nH]c2ccccc12)C(=O)N[C@@H](C(=O)N[C@@H](Cc1c[nH]c2ccccc12)C(=O)NCCO)[C@H](C)O [B22] (For-VGA[dL]A[dL]V[dD](NHMe)W[dL]W[dL]W[dT]W-NHCH2CH2OH) | 5.233 and 5.708 and 3.745 | 6.399 and 0.9122 and 2 | 2.405 and 9.3526 and 2.534 | 4.116 and 2.091 and 9.6371 | 3.439 and -1.283 and 7.2259 | 12.4052 and 7.371 and 12.8868 | 24.0812 and 19.193 and 19.2236 | 21.9455 and 34.569 and 23.6152 | 30.6863 and 31.8474 and 39.9799 | 57.1747 and 48.6012 and 49.2408 | 70.9515 and 65.7371 and 71.376 | > 64 | > 64 | > 33 | > 33 | > 64 | 64 | 33 | 1 | 2 | Antibacterial activity MIC [2]: > 33 µM; IC50 [7, 8]: > 1 µM
CC(C)C[C@@H](NC(=O)[C@H](C)NC(=O)CNC(=O)[C@@H](NC=O)C(C)C)C(=O)N[C@@H](C)C(=O)N[C@H](CC(C)C)C(=O)N[C@H](C(=O)N[C@H](CC(C)C)C(=O)N[C@@H](Cc1c[nH]c2ccccc12)C(=O)N[C@H](CC(C)C)C(=O)N[C@@H](Cc1c[nH]c2ccccc12)C(=O)N[C@@H](C(=O)N[C@@H](Cc1c[nH]c2ccccc12)C(=O)N[C@@H](C(=O)N[C@@H](Cc1c[nH]c2ccccc12)C(=O)NCCO)C(C)C)[C@H](C)O)C(C)C [B11] (For-VGA[dL]A[dL]V[dL]W[dL]W[dT]W[dV]W-NHCH2CH2OH) | 5.494 and 6.863 and 12.708 | 14.2851 and 9.552 and 1.714 | 7.111 and 13.4023 and 5.9017 | 7.045 and 5.618 and 12.7128 | 7.504 and 4.742 and -0.9072 | 6.643 and 8.722 and 7.953 | 9.977 and 11.641 and 10.0816 | 10.5587 and 19.8477 and 14.3879 | 16.8668 and 21.6675 and 22.4815 | 29.3702 and 19.1829 and 26.8244 | 51.942 and 51.7671 and 63.4556 | 4 | 0.5 | 0.27 | 8.5 | 16 | 2 | 1.1 | 0.017 | 0.031 | IC50 [7, 8]: 0.289 µM; IC50 [7, 9]: 0.25 ± 0.0577 µM
CC(C)C[C@@H](NC(=O)[C@H](C)NC(=O)CNC(=O)[C@@H](NC=O)C(C)C)C(=O)N[C@@H](C)C(=O)N[C@@H](C(=O)N[C@H](C(=O)N[C@@H](C(=O)N[C@@H](Cc1c[nH]c2ccccc12)C(=O)N[C@@H](C(=O)N[C@@H](Cc1c[nH]c2ccccc12)C(=O)N[C@H](CC(C)C)C(=O)N[C@@H](Cc1c[nH]c2ccccc12)C(=O)N[C@@H](C(=O)N[C@@H](Cc1c[nH]c2ccccc12)C(=O)NCCO)C(C)C)C(C)C)C(C)C)C(C)C)C(C)C [B04] (For-VGA[dL]A[dV]V[dV]W[dV]W[dL]W[dV]W-NHCH2CH2OH) | 5.512 and 4.537 and 0.4455 | -0.04863 and -3.2 and 2.187 | 9.24 and 8.431 and 0.7987 | 3.3 and 2.841 and 2.346 | 3.831 and -2.375 and 0.08227 | 3.92 and -4.965 and 7.615 | 4.496 and 6.302 and 12.8514 | 10.2052 and 8.412 and 22.8437 | 31.7359 and 28.6719 and 15.6803 | 31.9617 and 33.3362 and 31.6759 | 49.4317 and 48.1889 and 46.8231 | 8 | 0.063 | 0.034 | 4.3 | 8 | 1 | 0.54 | 0.0084 | 0.016 | Antibacterial activity MIC [2]: 4.3 µM; IC50 ([7]; Cytotoxicity IC50): 0.041 µM; IC50 [7, 8]: 0.0343 µM; IC50 [7, 9]: 0.0406 ± 0.00595 µM
